Measured values from patent publication US4003891A, “Preparation of metal complexes of 6-methoxy-1-phenazinol 5,10 dioxide” (Hoffmann-La Roche Inc., priority 1975, dated 1977).

Columns and labels:
S. aureus = experiment: In vivo anti-microbial efficacy against bacteria (ED50')
Method: (§1) For example, the anti-microbial activity of calcium myxin dihydrate, prepared by the method of this invention, is evaluated and compared to that of myxin itself both in vivo against 4 strains of bacteria and in vitro against yeast and fungus infections.

S. agalactiae = experiment: as above
Method: as §1

P. aeruginosa = experiment: as above
Method: as §1

E. coli = experiment: as above
Method: as §1

Solubility in water = type: physicochemical

Question: Which results are given for “6-methoxy-1-phenazinol 5,10-dioxide, calcium dihydrate complex [Calcium Myxin Dihydrate]”?
Answer: ED50' (S. aureus): < 20 µg/mL; ED50' (S. agalactiae): < 4 µg/mL; ED50' (P. aeruginosa): 20 µg/mL; ED50' (E. coli): 60 µg/mL

Question: Which solubility in water (Solubility in water) does the source give for `COc1cccc2c1[n+]([O-])c1cccc(O)c1[n+]2[O-]` [Myxin, 6-methoxy-1-phenazinol 5,10-dioxide] here?
Answer: The solubility in water was “very slightly soluble”.
